One compound from patent publication EP4667463A1, “DOMIDE MOLECULAR GLUE DERIVATIVE AND USE THEREOF” (CSPC Megalith Biopharmaceutical Co., Ltd., priority 2023, dated 2024) can be followed below.

The IC50 is the concentration needed to halve the response being measured.

The subject of data set [1] is SNU-5. As to the kind of experiment: Activity in cell strains with high expression of efflux pump proteins, cell viability assay. The settings on record: Homo sapiens, SNU-5 cells, 96 h. Type of data set: cell-based. On the procedure: (§1) Three types of cells used for evaluating the activity of the compounds of the present disclosure against a cell strain with high expression of efflux pump proteins were all purchased from Nanjing Cobioer Biosciences Co., Ltd., and all the cells were derived from ATCC (American Type Culture Collection). Various tumor cells were cultured until the cell confluency reached 80%-90%, with cell viability above 90% as determined by trypan blue exclusion. Then, the cells were plated. Specifically, after cell density optimization, 75 µL of each of three cell suspensions of SNU-5, HCT-15, and AsPc-1 cells (3000 cells/well) was inoculated into a BeyoGold™ ultra-low attachment black clear-bottom 96-well plate (Cat. No.: FULA965-24pcs), and the plate was incubated overnight in a cell incubator at 37 °C with carbon dioxide. The next day, after the cells adhered to the wall, 75 µL of the compounds diluted with the corresponding culture media were added. Specifically, the compounds were serially diluted at a 5-fold gradient starting from the highest concentration of 1 µM, with a final DMSO concentration of 1‰, and the test compounds were then added to the cell culture plate. The plate was incubated in an incubator at 37 °C with 5% carbon dioxide for 96 h. Before measurement, the CellTiter-Lumi™ luminescent cell viability assay reagent was equilibrated to room temperature in the dark. Then, 50 µL of the CellTiter-Lumi™ (Cat. No.: C0065XL) cell viability assay reagent was added to each well of the 96-well plate. The plate was shaken in the dark on a shaker at 300 rpm for 10 min to ensure complete cell lysis. After the reaction was completed, the chemiluminescence intensity was measured on a multi-mode microplate reader. The cell viability inhibition rate was determined according to the chemiluminescence intensity. Then, a cell viability curve was generated by Graphpad Prism 8.0, and the IC50 values were calculated. Table 3. Activity of the compounds of the present disclosure in cell strains with high expression of efflux pump proteins (IC50 value)

For data set [2], the system named is HCT-15. The description is as above. The note with it: Homo sapiens, HCT-15 cells, 96 h. The data set is classed as cell-based. On the procedure: as §1
In data set [3] the test system is AsPc-1. The data set is described as above. Type of data set: cell-based. The note with it: Homo sapiens, ASPC1, AsPc-1 cells, 96 h. As for the experimental part: as §1
Data set [4] can be described thus: Metabolic stability in liver microsomes. The settings on record: Mouse liver microsomes, after 60 min of incubation. For orientation: Liver microsomes are a subcellular fraction often used to study metabolism.
Protocol: The final concentration of the substrate in the incubation system was 1 µM, and the incubation time was 60 min. Sampling was performed at 0 min, 5 min, 15 min, 30 min, and 60 min. The reaction was stopped with glacial acetonitrile containing an internal standard (testosterone-d3 at a concentration of 10 ng/mL). Verapamil was used as a positive control. […] The natural logarithm of the remaining percentage was subjected to linear fitting with time to determine the elimination rate constant (k).

The structures appear in SMILES notation.

As for `O=C1CCC(N2Cc3cc(CNC(=O)Nc4ccc(CCCOC5CCCNC5)c(Cl)c4)ccc3C2=O)C(=O)N1` (stereo not shown) [Compound B19], the IC50 in data set [1] was below 0.05 µM; in data set [2], 0.2 to 1 µM; in data set [3], 0.05 to 0.2 µM. The “Parent drug remaining %” value in data set [4] was 92.8%.
